From patent US20090117176A1, “Anticancer Treatments” (Pharma Mar, S.A. Sociedad Unipersonal, priority 2004, published 2009)
Marks after values point to notes of the source that are not given here.

Assay: Phase I trial combining PLD and trabectedin: MTD, safety, drug-related adverse events
Format: in vivo, human
Experimental: A phase I trial combining PLD and trabectedin was performed. The objective of this study was to determine the maximum tolerated dose (MTD) of trabectidin in combination with PLD 30 mg/m^2 administered every 21 clays. Additional objectives were to evaluate the safety profile of this combination of drugs and to evaluate the pharmacokinetics of trabectidin and PDL when given in combination. The maximum tolerated dose (MTD) relates to the highest dose at which less than one third of the subjects in a dose-level cohort experienced dose-limiting toxicity (DLT).
We designed a dose finding trial with a fixed PLD dose of 30 mg/m^2 administered intravenously over one hour, followed immediately by one of six trabectedin doses (0.4, 0.6, 0.75, 0.9, 1.1, and 1.3 mg/m^2) administered intravenously over 3 hours. This treatment was repeated every 21 days.
Entry-criteria included normal liver function tests, limited prior, doxorubicin-exposure (dose less than 250 mg/m^2), normal cardiac function and Eastern Cooperative Oncology Group (ECOG) Performance Status (PS) score of 0 or 1.
Worst on-treatment drug related grade 3 and 4 toxicities have been minimal, limited to neutropenia and transaminases elevation. Tables 5a and 5b show the frequently reported drug-related Grade ¾ adverse events in least 5% of subjects. The adverse events reported at any time from first treatment dose up to 30 days after the last treatment dose are included. In order to define the toxicity grade, NCI common criteria are used.
In addition, Tables 6a and 6b show the drug-related serious adverse events reported.
Out of 18 subjects that discontinued treatment only one subject terminated treatment due to drug related adverse event (Tables 7a and 7b).

[1] = ET743 0.4 mg/m^2 + PLD 30 mg/m^2, N = 3
[2] = ET743 0.6 mg/m^2 + PLD 30 mg/m^2, N = 3
[3] = ET743 0.75 mg/m^2 + PLD 30 mg/m^2, N = 3
[4] = ET743 0.9 mg/m^2 + PLD 30 mg/m^2, N = 3
[5] = ET743 1.1 mg/m^2 + PLD 30 mg/m^2, N = 12
[6] = ET743 1.3 mg/m^2 + PLD 30 mg/m^2, N = 6
[7] = Total, all ET743 dose levels + PLD 30 mg/m^2, N = 30

For COc1cc2c(cc1O)CCN[C@]21CS[C@@H]2c3c(OC(C)=O)c(C)c4c(c3[C@H](COC1=O)N1[C@@H]2[C@H]2c3c(cc(C)c(OC)c3O)C[C@@H]([C@@H]1O)N2C)OCO4 [ET743, Ecteinascidin 743], the “Drug related serious adverse events, subjects: Nausea/Vomiting” value [1] was 0, the “Grade 3/4 drug-related AE, subjects: Allergic Reaction” value [1] was 0 and the “Grade 3/4 drug-related AE, subjects: Liver and Biliary System” value [1] was 0. The “Grade 3/4 drug-related AE, subjects: Nausea” value [1] was 0, the “Grade 3/4 drug-related AE, subjects: Other” value [1] was 0 and the “Grade 3/4 drug-related AE, subjects: Palmar-Plantar Erythrodysesthesia” value [1] was 0. The “Grade 3/4 drug-related AE, subjects: SGOT Increased” value [1] was 0, the “Grade 3/4 drug-related AE, subjects: SGPT Increased” value [1] was 0 and the “Total no. subjects with Grade 3/4 drug-related AE” value [1] was 0. For the same molecule, the “Total no. subjects with SAE (drug related serious adverse events)” value (“Total no. subjects with SAE” for short) [1] was 0, the “Treatment termination, subjects: Death” value [1] was 0 and the “Treatment termination, subjects: Drug-Related AE (hand-foot syndrome)” value (“Treatment termination … (hand-foot syndrome)” below) [1] was 0. For the same molecule, the “Drug related serious adverse events, subjects: Nausea/Vomiting” value [2] was 0, the “Grade 3/4 drug-related AE, subjects: Allergic Reaction” value [2] was 0 and the “Grade 3/4 drug-related AE, subjects: Liver and Biliary System” value [2] was 0. For the same molecule, the “Grade 3/4 drug-related AE, subjects: Nausea” value [2] was 1, the “Grade 3/4 drug-related AE, subjects: Other” value [2] was 1 and the “Grade 3/4 drug-related AE, subjects: Palmar-Plantar Erythrodysesthesia” value [2] was 0. The “Grade 3/4 drug-related AE, subjects: SGOT Increased” value [2] was 0, the “Grade 3/4 drug-related AE, subjects: SGPT Increased” value [2] was 0 and the “Total no. subjects with Grade 3/4 drug-related AE” value [2] was 1. For the same molecule, the “Total no. subjects with SAE” value [2] was 0, the “Treatment termination, subjects: Death” value [2] was 0 and the “Treatment termination … (hand-foot syndrome)” value [2] was 0. For the same molecule, the “Drug related serious adverse events, subjects: Nausea/Vomiting” value [3] was 0, the “Grade 3/4 drug-related AE, subjects: Allergic Reaction” value [3] was 0 and the “Grade 3/4 drug-related AE, subjects: Liver and Biliary System” value [3] was 0. For the same molecule, the “Grade 3/4 drug-related AE, subjects: Nausea” value [3] was 0, the “Grade 3/4 drug-related AE, subjects: Other” value [3] was 0 and the “Grade 3/4 drug-related AE, subjects: Palmar-Plantar Erythrodysesthesia” value [3] was 0. For the same molecule, the “Grade 3/4 drug-related AE, subjects: SGOT Increased” value [3] was 0, the “Grade 3/4 drug-related AE, subjects: SGPT Increased” value [3] was 0 and the “Total no. subjects with Grade 3/4 drug-related AE” value [3] was 0. The “Total no. subjects with SAE” value [3] was 0, the “Treatment termination, subjects: Death” value [3] was 0 and the “Treatment termination … (hand-foot syndrome)” value [3] was 0. The “Drug related serious adverse events, subjects: Nausea/Vomiting” value [4] was 0, the “Grade 3/4 drug-related AE, subjects: Allergic Reaction” value [4] was 0 and the “Grade 3/4 drug-related AE, subjects: Liver and Biliary System” value [4] was 0. For the same molecule, the “Grade 3/4 drug-related AE, subjects: Nausea” value [4] was 0, the “Grade 3/4 drug-related AE, subjects: Other” value [4] was 0 and the “Grade 3/4 drug-related AE, subjects: Palmar-Plantar Erythrodysesthesia” value [4] was 0. The “Grade 3/4 drug-related AE, subjects: SGOT Increased” value [4] was 0, the “Grade 3/4 drug-related AE, subjects: SGPT Increased” value [4] was 0 and the “Total no. subjects with Grade 3/4 drug-related AE” value [4] was 0. The “Total no. subjects with SAE” value [4] was 0, the “Treatment termination, subjects: Death” value [4] was 0 and the “Treatment termination … (hand-foot syndrome)” value [4] was 0. The “Drug related serious adverse events, subjects: Nausea/Vomiting” value [5] was 1, the “Grade 3/4 drug-related AE, subjects: Allergic Reaction” value [5] was 2 and the “Grade 3/4 drug-related AE, subjects: Liver and Biliary System” value [5] was 6. For the same molecule, the “Grade 3/4 drug-related AE, subjects: Nausea” value [5] was 1, the “Grade 3/4 drug-related AE, subjects: Other” value [5] was 4 and the “Grade 3/4 drug-related AE, subjects: Palmar-Plantar Erythrodysesthesia” value [5] was 2. For the same molecule, the “Grade 3/4 drug-related AE, subjects: SGOT Increased” value [5] was 1, the “Grade 3/4 drug-related AE, subjects: SGPT Increased” value [5] was 6 and the “Total no. subjects with Grade 3/4 drug-related AE” value [5] was 10. The “Total no. subjects with SAE” value [5] was 1, the “Treatment termination, subjects: Death” value [5] was 0 and the “Treatment termination … (hand-foot syndrome)” value [5] was 1. The “Drug related serious adverse events, subjects: Nausea/Vomiting” value [6] was 0, the “Grade 3/4 drug-related AE, subjects: Allergic Reaction” value [6] was 0 and the “Grade 3/4 drug-related AE, subjects: Liver and Biliary System” value [6] was 3. For the same molecule, the “Grade 3/4 drug-related AE, subjects: Nausea” value [6] was 0, the “Grade 3/4 drug-related AE, subjects: Other” value [6] was 2 and the “Grade 3/4 drug-related AE, subjects: Palmar-Plantar Erythrodysesthesia” value [6] was 2. For the same molecule, the “Grade 3/4 drug-related AE, subjects: SGOT Increased” value [6] was 2*, the “Grade 3/4 drug-related AE, subjects: SGPT Increased” value [6] was 3* and the “Total no. subjects with Grade 3/4 drug-related AE” value [6] was 6. The “Total no. subjects with SAE” value [6] was 0, the “Treatment termination, subjects: Death” value [6] was 1 and the “Treatment termination … (hand-foot syndrome)” value [6] was 0. For the same molecule, the “Grade 3/4 drug-related AE, subjects: Allergic Reaction” value [7] was 2, the “Grade 3/4 drug-related AE, subjects: Liver and Biliary System” value [7] was 9 and the “Grade 3/4 drug-related AE, subjects: Nausea” value [7] was 2. For the same molecule, the “Grade 3/4 drug-related AE, subjects: Other” value [7] was 7, the “Grade 3/4 drug-related AE, subjects: Palmar-Plantar Erythrodysesthesia” value [7] was 4 and the “Grade 3/4 drug-related AE, subjects: SGOT Increased” value [7] was 3. The “Grade 3/4 drug-related AE, subjects: SGPT Increased” value [7] was 9, the “Total no. subjects with Grade 3/4 drug-related AE” value [7] was 17 and the “Total no. subjects with SAE” value [7] was 1. The “Treatment termination, subjects: Death” value [7] was 1, the “Treatment termination … (hand-foot syndrome)” value [7] was 1 and the “Tolerability of the combination” value (both drugs at full (or near full) therapeutic doses for prolonged periods) was “well tolerated”. The “ET-743 dose reached in dose escalation” value (in combination with 30 mg/m^2 PLD, ET-743 over 3 hours) was 1.1 mg/m^2, the “maximum tolerated dose (MTD)” value (in combination with PLD 30 mg/m^2, every 21 days, ET-743 i.v. over 3 hours) was 1.1 mg/m^2 and the “recommended dose of the combination treatment” value (plus 30 mg/m^2 of PLD) was 1.1 mg/m^2.
